US20220233661A1, “METHOD OF DETERMINING ELIGIBILITY OF CANCER PATIENT FOR PEPTIDE VACCINE THERAPY” (priority 2019, published 2022)

What was measured:
[1] = tested on: anti-peptide IgG in plasma; test: Test Example 4: peptide-specific IgG titer pre and post vaccination, bead-based multiplexed Luminex assay; assay type: in vivo, human; conditions: for Pre-vaccination IgG Negative (number of patients) / Pre-vaccination IgG Positive (number of patients): cut off 10 FIU; for Post vaccination IgG: number of (positive) patients among vaccinated: positive IgG response; for Pre-vaccination IgG Negative patients: number of 2,588 patients below 10 FIU; for Pre-vaccination IgG Positive patients: number of 2,588 patients with ≥10 FIU; for Post vaccination IgG: (positive) patients: number of vaccinated patients with positive IgG response; for Correlation between immune responses and OS: Negative (mOS): patients with negative post-vaccination IgG response to the peptide; for Correlation between immune responses and OS: Positive (mOS): patients with positive post-vaccination IgG response to the peptide
Procedure, shortened: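 Plasma taken before vaccination and at the end of the first and second cycles; incubated with peptide-coupled beads 2 hours at 25° C., then biotinylated anti-human IgG (gamma chain-specific) and streptavidin-PE. Bead FIU read by Luminex; positivity cutoff 10 FIU in 100-fold diluted samples.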

cancer patients = test: Test Example 4: correlation between vaccination with individual peptides (or peptide sets) and OS, Cox proportional hazards regression; assay type: in vivo, human; conditions: for HR: Cox proportional hazards regression, OS; for Correlation between immune responses and OS: Negative (mOS) / Correlation between immune responses and OS: Positive (mOS): Table 20, <64% neutrophil and ≥26% lymphocyte; for Correlation between immune responses and OS: Negative (mOS): vaccinated patients with negative IgG response; for Correlation between immune responses and OS: Positive (mOS): vaccinated patients with positive IgG response
Procedure, shortened: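 Univariate and multivariate Cox proportional hazards regression of each of 31 vaccine peptides against OS (enrollment to death or last contact), giving HR with 95% CI; also run separately in 2,085 advanced (stage IV+recurrence) and 503 stage I-III patients. Two-sided p<0.05 considered significant.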

[2] = Table 20, patients showing both <64% neutrophil and ≥26% lymphocyte
[3] = patients showing detectable levels
[4] = patients showing positive responses
[5] = Table 18, all 2,588 cases, vaccinated vs non-vaccinated
[6] = Table 18, all 2,588 cases, median OS of patients under PPV containing the peptide
[7] = Table 18, all 2,588 cases, median OS of patients under PPV not containing the peptide
[8] = Table 19, 2,085 advanced cancer patients (stage IV+recurrence)
[9] = Table 19, 2,085 advanced cancer patients (stage IV+recurrence), PPV containing the peptide
[10] = Table 19, 2,085 advanced cancer patients (stage IV+recurrence), PPV not containing the peptide
[11] = Table 21, patients showing both <64% neutrophil and ≥26% lymphocyte
[12] = Table 21, patients showing both <64% neutrophil and ≥26% lymphocyte, PPV containing the peptide
[13] = Table 21, patients showing both <64% neutrophil and ≥26% lymphocyte, PPV not containing the peptide
[14] = 2,085 advanced cancer patients (stage IV+recurrence)

Row | Sequence | Post vaccination IgG Median (FIU) [1, 2] | Pre-vaccination IgG Median (FIU) [1, 2] | Pre-vaccination IgG Negative (number of patients) [1, 2] | Pre-vaccination IgG Positive (number of patients) [1, 2] | Post vaccination IgG: number of (positive) patients among vaccinated [1, 2] | Pre-vaccination IgG Negative patients [1] | Pre-vaccination IgG Positive patients [1] | Post vaccination IgG: (positive) patients [1] | Pre-vaccination IgG Median (FIU) [1, 3] | Post vaccination IgG Median (FIU) [1, 4] | Correlation between immune responses and OS: Negative (mOS) [1] | Correlation between immune responses and OS: Positive (mOS) [1] | HR (cancer patients; [5]) | Vaccinate cases (mOS) (cancer patients; [6]) | Non-vaccinate cases (mOS) (cancer patients; [7]) | HR (cancer patients; [8]) | Vaccinate cases (mOS) (cancer patients; [9]) | Non-vaccinate cases (mOS) (cancer patients; [10]) | Correlation between immune responses and OS: Negative (mOS) (cancer patients) | Correlation between immune responses and OS: Positive (mOS) (cancer patients) | also measured
1 | NVLHFFNAPL (listed as Homo sapiens) [HNRPL-501] | 12,553 FIU | 48 FIU | 587 | 479 | 148(111) | 1,399 | 1,189 | 355(223) | 45 FIU | 10,405 FIU | 6.6 months | 19.3 months | 1.0 | 355(12.1) M | 1,107(11.6) M | 1.0 | 291(10.4) M | 897(10.3) M | 10.6 months | 28.2 months | HR (cancer patients; [11]): 0.9; Vaccinate cases (mOS) (cancer patients; [12]): 148(19.6) M; Non-vaccinate cases (mOS) (cancer patients; [13]): 445(17.5) M
2 | KYVGIEREM (listed as Homo sapiens) [EZH2-735] | 20,673 FIU | 23 FIU | 837 | 229 | 31(25) | 2,030 | 558 | 69(51) | 23 FIU | 17,691 FIU | 5.3 months | 24.7 months | 0.9 | 69(13.3) M | 1,481(11.9) M | 0.9 | 53(11.9) M | 1193(10.4) M | 6.7 months | 26.7 months | positive immune responses post-vaccination (positive of vaccinated cases) ([1]; patients who completed at least the first cycle): 51 of 69; HR (cancer patients; [11]): 0.7; Vaccinate cases (mOS) (cancer patients; [12]): 31(26.5) M; Non-vaccinate cases (mOS) (cancer patients; [13]): 594(18.0) M
3 | KLKHYGPGWV (listed as Homo sapiens) [CypB-129] | 3,143 FIU | 28 FIU | 290 | 776 | 196(110) | 700 | 1,888 | 483(222) | 31 FIU | 2,483 FIU | 9.0 months | 23.8 months | 0.9 | 483(12.3) M | 1458(11.2) M | 0.9 | 393(10.9) M | 1183(10.1) M | 13.2 months | 29.4 months | HR (cancer patients; [11]): 0.9; Vaccinate cases (mOS) (cancer patients; [12]): 196(19.3) M; Non-vaccinate cases (mOS) (cancer patients; [13]): 612(16.9) M
4 | RLAEYQAYI (listed as Homo sapiens) [SART3-309] | 6,009 FIU | 33 FIU | 253 | 813 | 154(99) | 667 | 1,921 | 328(158) | 35 FIU | 3,070 FIU | 10.5 months | 21.4 months | 0.9 | 328(12.1) M | 722(11.1) M | 0.9 | 259(11.6) M | 603(9.8) M | 10.4 months | 28.9 months | HR (cancer patients; [11]): 0.9; Vaccinate cases (mOS) (cancer patients; [12]): 154(19.0) M; Non-vaccinate cases (mOS) (cancer patients; [13]): 280(15.6) M
5 | VIQNLERGYR (listed as Homo sapiens) [Lck-449] | 18,734 FIU | 23 FIU | 475 | 591 | 57(38) | 1,182 | 1,406 | 127(67) | 23 FIU | 18,919 FIU | 6.2 months | 19.5 months | 0.9 | 127(13.7) M | 1,087(10.8) M | 0.8 | 102(13.3) M | 867(9.5) M | 10 months | 27.1 months | HR (cancer patients; [11]): 0.8; Vaccinate cases (mOS) (cancer patients; [12]): 57(18.1) M; Non-vaccinate cases (mOS) (cancer patients; [13]): 450(17.5) M
6 | DYVREHKDNI (listed as Homo sapiens) [EGFR-800] | 746 FIU | 32 FIU | 431 | 635 | 176(79) | 1,046 | 1,542 | 390(156) | 30 FIU | 715 FIU | 12.4 months | 24.3 months | 0.8 | 390(14.3) M | 1,160(11.1) M | 0.8 | 299(13.1) M | 947(9.6) M | 17.1 months | 27.5 months | median OS of non-vaccinated cases (cancer patients; [14]): 9.6 months; median OS of vaccinated cases (cancer patients; [14]): 13.1 months; HR (cancer patients; [11]): 0.9; Vaccinate cases (mOS) (cancer patients; [12]): 176(21.2) M; Non-vaccinate cases (mOS) (cancer patients; [13]): 449(21.2) M; median OS of vaccinated cases (cancer patients; all 2,588 cases, PPV containing the peptide): 14.3 months; median OS of non-vaccinated cases (cancer patients; all 2,588 cases, PPV not containing the peptide): 11.1 months
